Test results: paper PMC10013830 (Molecular Plant Pathology, 2023)
“Also recorded” adds a separate entry of the source.

Assays:
[1] = test system: pip promoter (Xcc 8008, pip-GUS reporter); format: cell-based, Xanthomonas campestris pv. campestris
[2] = test system: XccR binding to the luxXc box; assay: EMSA: effect of sugars on binding of XccR to the luxXc box; settings: XccR-MBP, increasing sugar concentrations (glucose 0.005-5 μM)
XccR-SUMO = molecular target: T1, XccR-SUMO (Xanthomonas campestris pv. campestris, UniProt B0RQF7); assay: MST binding of glucose to XccR-SUMO
T1 sequence (B0RQF7 1-272): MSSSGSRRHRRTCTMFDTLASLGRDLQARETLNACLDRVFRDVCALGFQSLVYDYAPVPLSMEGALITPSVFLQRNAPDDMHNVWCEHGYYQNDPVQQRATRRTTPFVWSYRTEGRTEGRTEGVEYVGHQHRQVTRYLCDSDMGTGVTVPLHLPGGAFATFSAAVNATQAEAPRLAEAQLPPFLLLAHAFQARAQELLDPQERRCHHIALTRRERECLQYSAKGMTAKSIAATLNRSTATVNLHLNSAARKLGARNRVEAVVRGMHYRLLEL

TraR = molecular target: T2, TraR (Agrobacterium tumefaciens, UniProt P33905); assay: MST TraR–glucose interaction; format: binding; settings: Figure S7c
T2 sequence (P33905 1-234): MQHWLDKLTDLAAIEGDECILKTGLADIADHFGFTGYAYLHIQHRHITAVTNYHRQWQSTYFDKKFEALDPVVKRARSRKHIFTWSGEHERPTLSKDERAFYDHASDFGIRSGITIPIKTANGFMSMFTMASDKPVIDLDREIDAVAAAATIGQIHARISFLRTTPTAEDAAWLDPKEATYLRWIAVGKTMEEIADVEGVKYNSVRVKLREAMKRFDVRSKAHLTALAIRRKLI

LasR = molecular target: T3, LasR (Pseudomonas aeruginosa, UniProt P25084); assay: MST LasR–glucose interaction; format: binding; settings: Figure S7d
T3 sequence (P25084 1-239): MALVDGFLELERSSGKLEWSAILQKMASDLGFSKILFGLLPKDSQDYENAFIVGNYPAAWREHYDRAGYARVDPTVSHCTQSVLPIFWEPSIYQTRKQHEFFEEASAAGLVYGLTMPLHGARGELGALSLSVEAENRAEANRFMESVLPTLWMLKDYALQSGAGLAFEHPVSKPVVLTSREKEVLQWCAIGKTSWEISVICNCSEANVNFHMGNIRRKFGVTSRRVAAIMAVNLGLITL

[3] = test system: pip promoter (Xcc 8008 reporter strain); format: in vivo, Xanthomonas campestris pv. campestris in Arabidopsis; settings: Atsweet2‐3‐2 and Atsweet15‐4‐7 mutant plants, bacterial suspension supplemented with glucose before infection
XccR-MBP [4] = molecular target: T4, XccR-MBP (Xanthomonas campestris pv. campestris, UniProt B0RQF7); assay: Isothermal titration calorimetry of XccR-MBP with glucose; format: binding; settings: XccR-MBP 10 μM titrated with 100 μM glucose
T4 sequence (B0RQF7 1-272): T1 sequence (B0RQF7 1-272)

XccR-MBP [5] = molecular target: T4, XccR-MBP; assay: Microscale thermophoresis

O=CC[C@@H](O)[C@H](O)[C@H](O)CO [2‐deoxyglucose, 2‐deoxy‐D‐glucose, reference compound]
GUS activity driven by the pip promoter [1]: promoted | Effect on binding of XccR to the luxXc box [2]: enhanced

O=C(CO)[C@@H](O)[C@H](O)[C@H](O)CO [fructose]
Effect on binding of XccR to the luxXc box [2]: did not enhance

O=C[C@H](O)[C@@H](O)[C@H](O)[C@H](O)COP(=O)(O)O [glucose 6‐phosphate, D‐glucose 6‐phosphate]
Effect on binding of XccR to the luxXc box [2]: did not enhance

OC[C@H]1OC(O)[C@H](O)[C@@H](O)[C@@H]1O (stereo partly shown) [glucose, D‐glucose]
Kd (XccR-SUMO): 242 nM | TraR–glucose interaction (TraR): did not interact | LasR–glucose binding (LasR): did not bind | GUS activity driven by the pip promoter [1]: increase; also recorded: promoted | pip promoter-driven GUS activity in planta [3]: restored to the wild‐type level | Binding of XccR with glucose by ITC (XccR-MBP [4]): supported by the ITC results | Effect on binding of XccR to the luxXc box [2]: enhanced | Kd (XccR-MBP [5]): 252 nM

OC[C@H]1O[C@@](CO)(O[C@H]2O[C@H](CO)[C@@H](O)[C@H](O)[C@H]2O)[C@@H](O)[C@@H]1O [sucrose]
Effect on binding of XccR to the luxXc box [2]: did not enhance
